Data on 81 compounds can be found in paper PMC12040169 (PLOS Biology, 2025).

The term viability denotes a read-out of living cells in per cent, often relative to untreated cells.

The series can be described thus: in vitro. The conditions noted are these: human, hela cells, % viability.

Structures are written as SMILES.

For `O=C(Nc1nnc(-c2ccncc2)o1)c1ccc(F)cc1` [CBK287431], the viability at 28.5 h, 10 µM is 80%.
On to `O=C(O)CCC(=O)N1CCN(C2CCCCC2)CC1` [CBK286918], for which the viability at 28.5 h, 10 µM is 94.1%.
For `C=CCN(CC=C)CCOc1c(C)cc(C)cc1Br` [CBK266070G], the viability at 28.5 h, 10 µM was 110%.
Turning to `Cc1ccccc1Sc1ncccc1C(F)(F)F` [CBK115231], the viability at 28.5 h, 10 µM was found to be 104%.
`O=C(c1ccncc1)N1C2CCC1CC(O)(c1ccc(F)cc1)C2` (stereo not drawn) [CBK283545]: the viability at 28.5 h, 10 µM is 95.6%.
As to `Cc1nnc(CN(C)C2CCN(CC3CCCC3)C2)n1C` (stereo not drawn) [CBK304851], the viability at 28.5 h, 10 µM amounted to 106%.
Regarding `Cc1cc(C)c(NC(=O)CSc2n[nH]c(=O)n2C2CC2)c(C)c1` [CBK295598], the viability at 28.5 h, 10 µM is 95%.
`CCc1nn2c(=O)cc(CN3C(=O)NC(C)(c4ccco4)C3=O)nc2s1` (stereo not drawn) [CBK305880]: the viability at 28.5 h, 10 µM is 114%.
`O=C(CN1CCCCCC1=O)Nc1nc(-c2ccccc2F)cs1` [CBK281408]: the viability at 28.5 h, 10 µM was 104%.
With `CC(C)(C)NC(=O)c1ccc(-n2ccnc2)c(-n2cccc2)c1` [CBK284811], the viability at 28.5 h, 10 µM is 103%.
Turning to `CC12CN(Cc3ccccc3)CC1NC(=O)c1ccccc1C2N` (stereo not drawn) [CBK282850], the viability at 28.5 h, 10 µM stood at 99.5%.
Take `Cc1c(CN(C)C(=O)c2ccc(COc3ccc(Cl)cc3)cc2)cnn1C` [CBK265756]: the viability at 28.5 h, 10 µM was determined as 98.9%.
As for `Cc1ncsc1C(=O)N1CCCC(n2cnc3cc(F)ccc32)C1` (stereo not drawn) [CBK284470], the viability at 28.5 h, 10 µM is 91.2%.
For `COc1cc(CNC(=O)NC(=O)C2CCN(CCc3c(-c4ccccc4)[nH]c4ccccc34)CC2)cc(OC)c1OC` [CBK034859], the viability at 28.5 h, 10 µM came out at 91.7%.
Consider `Nc1ncc(-c2ccc(F)c(Cl)c2)nc1NCCCO` [CBK063555], for which the viability at 28.5 h, 10 µM came out at 101%.
With `O=C(O)CC(NC(=O)OCc1ccccc1)c1ccccc1` (stereo not drawn) [CBK265351], the viability at 28.5 h, 10 µM was determined as 107%.
For `O=C(O)c1cc(-n2c(S)nnc2-c2cnccn2)ccc1Cl` [CBK269285], the viability at 28.5 h, 10 µM was 86.2%.
Turning to `Nc1cccc(-c2nc(-c3cncnc3)cnc2N)c1` [CBK063907], the viability at 28.5 h, 10 µM was found to be 102%.
Next, `CN(CC(O)CO)C(=O)c1coc(COc2cccc(F)c2)n1` (stereo not drawn) [CBK306854]: 88.5%; `COc1ccc(/C=N/NC(=O)c2cc[nH]n2)cc1COc1ccc(Cl)cc1Cl` [CBK263708]: 90.9%.
For `CC1(C)Cc2c(sc(NC(=O)Cc3ccccc3)c2C(=O)O)CO1` [CBK264354], the viability at 28.5 h, 10 µM is 110%.
Turning to `O=C(Nc1ncnc2nc[nH]c12)NC1CCCCC1` [CBK022860], the viability at 28.5 h, 10 µM amounted to 97.7%.
In the case of `Cc1ccc2[nH]c3c(c2c1)CCOC31CCN(CCOc2cccc3c2CCCC3=O)CC1` [CBK040230], the viability at 28.5 h, 10 µM is 83.3%.
Turning to `Nc1nc2c(nc(SCCc3ccccc3)n2C2OC(CO)C(O)C2O)c(=O)[nH]1` (stereo not drawn) [CBK268686], the viability at 28.5 h, 10 µM is 101%.
Regarding `Cn1ccc(C2CCCCCN2S(=O)(=O)c2ccc(F)cc2)n1` (stereo not drawn) [CBK284671], the viability at 28.5 h, 10 µM stood at 98.8%.
As to `C[C@@H]1CN(C(=O)OCc2ncc(F)cc2F)C[C@H](C)O1` [CBK200286], the viability at 28.5 h, 10 µM was determined as 103%.
`COc1ccc(Nc2nc(-c3cc(C(C)C)ccc3OC)cnc2N)c(C)c1` [CBK064098]: the viability at 28.5 h, 10 µM was found to be 87%.
`COCCNc1nc(-c2ccc(C(C)=O)s2)ccc1C(=O)N(C)CCN(C)C` [CBK105914]: the viability at 28.5 h, 10 µM was determined as 116%.
In the case of `CC1(C)CN=C(N2CCN(c3c4c(c(C#N)c5nc6ccccc6n35)CCC4)CC2)S1` [CBK263113], the viability at 28.5 h, 10 µM stood at 103%.
Regarding `COc1cc(CNc2nccnc2-c2ccco2)cc(OC)c1OC` [CBK037320], the viability at 28.5 h, 10 µM came out at 89.9%.
As to `O=C1c2ccccc2C2OCc3ccccc3N12` (stereo not drawn) [CBK109952], the viability at 28.5 h, 10 µM came to 105%.
In the case of `O=C(c1cccc(C(F)(F)F)c1)N1CCN(C(=O)c2ccc3c(c2)CCC3)CC1` [CBK298300], the viability at 28.5 h, 10 µM was 91.5%.
`CCc1ccc(OC(C)c2nnc(SCC(=O)N3c4ccccc4Sc4ccccc43)n2C)cc1` (stereo not drawn) [CBK268058]: the viability at 28.5 h, 10 µM worked out at 92.3%.
Next, `OC(Cn1cnc(-c2ccccc2)c1-c1ccccc1)Cn1c2ccccc2c2ccccc21` (stereo not drawn) [CBK261416]: 78.2%; `CC(O)C(=O)NS(=O)(=O)c1ccccc1` (stereo not drawn) [CBK038300]: 104%; `Cc1nnc2c(N3CCN(CCO)CC3)nc3ccccc3n12` [CBK270146]: 83.2%.
With `COc1cccc(NC(=O)CCS(=O)(=O)c2ccccc2)c1` [CBK270150], the viability at 28.5 h, 10 µM came out at 91.9%.
In the case of `Cn1ccnc1C1(O)C2CCCC1CN(Cc1ccc(F)c(F)c1)C2` (stereo not drawn) [CBK285189], the viability at 28.5 h, 10 µM stood at 95.1%.
On to `Cn1c(=O)n(CC(=O)N2CCc3ccccc32)c2cccnc21` [CBK283792], for which the viability at 28.5 h, 10 µM is 106%.
Turning to `CC(C)c1ccc(S(=O)(=O)Nc2cccc(SC(F)(F)F)c2)cc1` [CBK044581], the viability at 28.5 h, 10 µM was determined as 99.5%.
Regarding `Cc1cc(C)c2c(N)c(C(=O)Nc3ccc(C(=O)O)cc3)sc2n1` [CBK300515], the viability at 28.5 h, 10 µM was 100%.
`Cc1nc(C)c(CCC(=O)Nc2cccc(F)c2)c(=O)[nH]1` [CBK305026]: the viability at 28.5 h, 10 µM was 90.3%.
As for `COc1ccc(CCN(C)C(=O)CCCc2cc3ccccc3[nH]2)cc1OC` [CBK051152], the viability at 28.5 h, 10 µM stood at 93.7%.
For the compound `C=CCN1C(=O)C2(CC(=O)N(CC)C2=O)c2cc(F)ccc21` (stereo not drawn) [CBK075318], the viability at 28.5 h, 10 µM is 100%.
With `Cn1nc(C2CCN(C(=O)C3CCCC3)CC2)c2cccnc21` [CBK284899], the viability at 28.5 h, 10 µM came out at 101%.
Under `CCn1c(=O)n(CC(=O)N2CCc3ccccc32)c2cccnc21` [CBK283826] stands 89.4%; under `CC(C)Nc1nc2ccccc2nc1SCCc1ccncc1` [CBK103670], 87.8%; under `COc1cc(C2c3c(oc4ccc(Cl)cc4c3=O)C(=O)N2CC2CCCO2)ccc1OCc1ccccc1` (stereo not drawn) [CBK267581], 89.5%.
With `CCn1c(=O)c2c(cnn2C)c2ccccc21` [CBK017345], the viability at 28.5 h, 10 µM amounted to 81.3%.
Next, `CCN(CC(=O)NCc1ccc(C)cc1)S(=O)(=O)c1ccc(C)cc1` [CBK267511]: 110%; `COCc1nnc(Sc2cc(NC(C)C)ncn2)s1` [CBK093784]: 89.3%; `O=S(=O)(Cc1ccccc1Cl)NCCN1CCOCC1` [CBK269171]: 102%.
As to `CCOC(=O)N(C)c1c(CC)nc2c(OCC(=O)C(C)(C)C)cccn12` [CBK147382], the viability at 28.5 h, 10 µM is 94.2%.
In the case of `Nc1nonc1-c1nc2ccccc2n1CC(=O)NCc1ccccc1` [CBK264711], the viability at 28.5 h, 10 µM is 92.1%.
On to `Cc1onc(-c2ccccc2Cl)c1C(=O)N(Cc1nc(-c2ccccc2)no1)C1CCCCC1` [CBK268790], for which the viability at 28.5 h, 10 µM was 108%.
Regarding `Cc1cccc(CN2CCC(NC(=O)c3cccc4nn[nH]c34)CC2)c1` [CBK305411], the viability at 28.5 h, 10 µM turned out to be 92.1%.
Under `Cc1ccc(C2(CN3CCN(Cc4ncc[nH]4)CC3)CC2)cc1` [CBK283306] stands 95.9%; under `COc1ccc(CN2CCC(Cc3ccccc3-c3ccc(C)cc3C)(C(=O)O)CC2)cc1` [CBK286421], 88.5%.
For the compound `Cc1c(CCC(=O)N2CCCC(C(=O)O)C2)c(=O)oc2c(C)c(O)ccc12` (stereo not drawn) [CBK286764], the viability at 28.5 h, 10 µM worked out at 88.5%.
On to `N#Cc1c(O)nc(SCC(=O)Nc2ccc(Oc3ccccc3)cc2)nc1-c1ccccc1` [CBK266607], for which the viability at 28.5 h, 10 µM was determined as 118%.
As to `COc1ccc(F)cc1-c1cccc(CC2(C(=O)NC3CCCCC3)CCOCC2)c1` [CBK285541], the viability at 28.5 h, 10 µM was determined as 92.8%.
With `O=C(O)C1C2C=CC(C2)C1C(=O)N1CCN(Cc2ccc(Cl)cc2)CC1` (stereo not drawn) [CBK270318], the viability at 28.5 h, 10 µM was 83.8%.
Next, `Fc1cc(Br)ccc1COc1cccnc1Cl` [CBK161281]: 68.4%; `O=C(NCc1ccccc1Cl)C1CCCN(S(=O)(=O)c2ccccc2)C1` (stereo not drawn) [CBK269086]: 92.8%; `COc1ccnc(N2CCN(C(=O)c3cccc4c3NCCC4)CC2)n1` [CBK306639]: 109%.
In the case of `CCNC(=O)N1CC2(CCN(Cc3nc4ccccc4[nH]3)CC2)c2ccccc21` [CBK126693], the viability at 28.5 h, 10 µM was 98%.
In the case of `CCCC(=O)NC[C@H]1CC[C@H](c2nnc(-c3ccsc3)o2)CC1` [CBK283362], the viability at 28.5 h, 10 µM was 98.9%.
As for `Cc1cccc(Cl)c1OCC(O)CNCCc1ccccc1` (stereo not drawn) [CBK003076], the viability at 28.5 h, 10 µM is 102%.
For the compound `COc1ccc(C(=O)N2CCC3(CCN(CCCCC4NC(=O)NC4=O)C3)C2)cc1OC` (stereo not drawn) [CBK132169], the viability at 28.5 h, 10 µM amounted to 83%.
Under `CCCCCn1c(Cc2ccccc2)n[nH]c1=O` [CBK013059] stands 98.3%; under `CC(CN1CCCCC1)OC(=O)C(c1ccccc1)c1ccccc1` (stereo not drawn) [CBK265237C], 104%.
As to `O=C(COc1ccccc1)NC(/C=C/c1ccccc1)c1cc(Cl)c2cccnc2c1O` (stereo not drawn) [CBK263994], the viability at 28.5 h, 10 µM was found to be 104%.
`O=C1CC(N2CCN(CCc3ccncc3)CC2)C(=O)N1c1ccc(Cl)cc1` (stereo not drawn) [CBK270078]: the viability at 28.5 h, 10 µM turned out to be 85.6%.
Take `CN1C(=O)COc2ccccc2C/C=C/C[C@H]2NCCC[C@H]21` [CBK292156]: the viability at 28.5 h, 10 µM was determined as 80.9%.
Next, `O=C(CN1CCC(NC(=O)c2cccs2)CC1)NCc1ccccc1F` [CBK304901]: 97.2%; `NC(=O)CN1CCCN(c2nccc(OCC3COc4ccccc4O3)n2)CC1` (stereo not drawn) [CBK084041]: 115%.
Regarding `CCOC(=O)c1ccc(-n2c(CCC(=O)O)ccc2-c2ccc(F)cc2)cc1O` [CBK266010], the viability at 28.5 h, 10 µM amounted to 94.1%.
`CS(=O)(=O)N1CCN(c2ccccc2NC(=O)c2cccnc2)CC1` [CBK267604]: the viability at 28.5 h, 10 µM stood at 119%.
Under `COCCNC(=O)CC1Sc2ccccc2NC1=O` (stereo not drawn) [CBK268443] stands 98.9%.
For the compound `Cc1nc2n(CCN3CCCCC3)c3ccccc3n2n1` [CBK278258C], the viability at 28.5 h, 10 µM amounted to 91.5%.
`Nc1ncc(-c2cccc3ccccc23)nc1Nc1ccc2[nH]ccc2c1` [CBK063659]: the viability at 28.5 h, 10 µM amounted to 90.9%.
